Test results as given in article PMC7957705 (Molecules, 2021).
“Also recorded” adds a separate entry of the source. Where two headings read alike, the source gives them in different places. Where a SMILES comes first, the peptide text is derived from it. Bridges are numbered along the chain shown (N, C = ends). Triazole bridges read from a SMILES are 1,4-linked. [ ]: non-standard residue; d: D form. The star is where a group is joined. Benzoyl(4-guanidino) = N=C(N)Nc1ccc(C(=O)*)cc1; Aha = [N-]=[N+]=NCC[C@H](N)C(=O)O; β3hV = CC(C)[C@H](N)CC(=O)O; Nle = CCCC[C@H](N)C(=O)O; Pra = C#CC[C@H](N)C(=O)O

Legend:
[1] = system: high-fat diet-induced obese C57BL/6 mice; assay: Diet-induced obesity model: adipose tissue weights; type: in vivo, mouse
Protocol: Male C57BL/6 mice at 4 weeks of age were provided by BioLasco Taiwan (under Charles River Laboratories Licensee). All animals were maintained in an environment with well-controlled temperature (20–24 °C) and humidity (30–70%) with 12 h light/dark cycles. Free access to standard lab diet (MFG (Oriental Yeast Co., Ltd., Japan)) and autoclaved tap water was granted. All aspects of this work including housing, experimentation, and animal disposal were performed in general accordance with the “Guide for the Care and Use of Laboratory Animals: Eighth Edition” (National Academies Press, Washington, D.C., 2011) in our laboratory animal facility accredited by the […]. In addition, the protocol for animal care and use was reviewed and approved by the Institutional Animal Care and Use Committee (IACUC) at Pharmacology Discovery Services Taiwan, Ltd.
The protocol was performed for all groups and all animals. Male C57BL/6 mice were fed a high-fat diet (HFD) (60% of calories) or a standard chow diet (STD) from 4 weeks of age. Thirty (30) mice were fed the HFD and 10 mice were fed the STD (for 8 weeks before treatment) for a total of 20 weeks. The mice assigned to the STD diet were maintained on this diet throughout the study as a reference group of lean control mice. From Week 9, HFD-fed mice were grouped by body weight before dosing. Body weight was recorded three times weekly from Week 9. Food/water intake was recorded twice weekly from Week 9. Blood chemistry analyzes were performed in Weeks 8 (before dosing, Day 56), 16 (Day 113) and 20 (Day 141), including serum insulin, total cholesterol (T-CHO), triglyceride (TG), alanine aminotransferase (ALT), aspartate aminotransferase (AST), uric acid (UA), creatinine, potassium (K^+) and sodium (Na^+). At the termination in Week 20 (Day 141), the adipose tissue weight, including epididymal, mesenteric, inguinal, retroperitoneal, and brown fat, was measured after the animals were sacrificed. Two-way ANOVA followed by Bonferroni’s tests were applied to ascertain the difference between vehicle control and treated animals. Significance was set at p < 0.05 level. The following parameters were measured: (1) body weight three times weekly; (2) food/water intake twice weekly; (3) blood chemistry in Weeks 8 (before dosing), 16 and 20 including glucose, insulin, serum lipids (triglycerides (TG), total cholesterol (TC), AST, alanine aminotransferase (ALT), uric acid, creatinine, potassium and sodium through 16-h fasting animals; and finally, (4) total body fat (including visceral and subcutaneous fat) in Week 20.

[2] = target: T1, human MCH-R1 (Homo sapiens, UniProt Q99705); assay: MCH-induced cytosolic Ca2+ ion mobilization, antagonist effect; type: cell-based
T1 construct: expressed in transfected cells
Protocol: The functional assay was run onto cells expressing the hMCH-R1 receptor, as described in Wang et al.. In brief, the cells are suspended in DMEM buffer (Invitrogen), then distributed in microplates at a density of 4.104 cells/well. The fluorescent probe (Fluo4 Direct, Invitrogen) mixed with probenecid in Hanks’ Balanced Salt solution (HBSS) (Invitrogen) complemented with 20 mM HEPES (Invitrogen) (pH 7.4) is then added into each well and equilibrated with the cells for 60 min at 37 °C, then 15 min at 22 °C. Then, the assay plates are positioned in a microplate reader (CellLux, PerkinElmer) which is used for the addition of the test compound, reference agonist or HBSS buffer (basal control), and the measurements of changes in fluorescence intensity, which varies proportionally to the free cytosolic Ca^2+ ion concentration. For stimulated control measurements, MCH at 300 nM is added in separate assay wells. The results are expressed as a percentage of the control response to 300 nM MCH. The standard reference agonist is MCH, which is tested in each experiment at several concentrations to generate a concentration-response curve from which its EC50 value is calculated. For the antagonist effect, the results are expressed as a percentage inhibition of the control response to 30 nM MCH, which was added to all tested wells and controls 5 min after the candidate products.

[3] = type: in vitro ADME; settings: for half-life: plasma
Protocol: Plasmas from 3 species (including commercially available human healthy donors) were adjusted to pH 7.4 if necessary. Incubations were performed at a concentration of 1 µM of the compound at 37 °C (in the presence of a final concentration of DMSO of 2.5% v/v. The incubations were stopped at 0, 15, 30, 60 and 120 min by methanol. Each time point was run in sextuplets. The sampling plates were then centrifuged (2500 rpm, 45 min, 4 °C) and the supernatants pooled. Samples were analyzed for parent compound by LC-MS/MS. The percentage of parent compound remaining at each time point relative to the 0 min sample is then calculated from LC-MS/MS peak area ratios. Then, the stability in plasma was evaluated by incubating human, rat or mouse plasma with the compound(s) as follows: the product (0.1 µM in TRIS buffer pH 7.4 0.1% BSA) was incubated with the plasma at 37 °C. The disappearance of the product was measured at 15, 45, 120, 240 and 300 min by mass spectrometry. Incubations were carried out in a robot Star (Hamilton France, Villebon-sur-Yvette, France). At each sampling time, 50 µL of the reaction medium was removed and diluted with 100 µL of acetonitrile. After centrifugation (20 min at + 4 °C, 4000 rpm), 75 µL of the supernatants was transferred into a 384 well injection plate. Ten microliters were injected onto UPLC coupled with a XEVO TQS mass spectrometer system (Waters, Milford, MA, USA). The unchanged product is quantified using a reference sample (0.1 µM) prepared during the incubation process. A second reference sample at 0.01 µM is prepared in the same conditions to verify the linearity of the detection method. The peak height (or area) is measured to calculate the half-life of the compound.

[4] = 5 and 10 mg/kg i.p. once daily for 12 weeks, Week 20 (Day 141)

T1 sequence (Q99705 whole entry): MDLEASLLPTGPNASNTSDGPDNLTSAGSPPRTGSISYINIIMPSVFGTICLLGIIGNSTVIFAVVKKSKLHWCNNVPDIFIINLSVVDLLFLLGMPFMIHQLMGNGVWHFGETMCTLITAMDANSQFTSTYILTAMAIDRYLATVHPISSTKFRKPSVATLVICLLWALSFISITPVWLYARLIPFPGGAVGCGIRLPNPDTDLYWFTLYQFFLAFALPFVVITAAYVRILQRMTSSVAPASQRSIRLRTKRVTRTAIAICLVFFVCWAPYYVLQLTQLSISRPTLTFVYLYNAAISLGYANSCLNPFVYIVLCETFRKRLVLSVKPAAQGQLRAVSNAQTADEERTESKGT

## CCCC[C@@H]1NC(=O)[C@@H](NC(=O)c2ccc(NC(=N)N)cc2)CCn2cc(nn2)C[C@@H](C(=O)N[C@@H](Cc2c[nH]c3ccccc23)C(=O)O)NC(=O)[C@@H]2CCCN2C(=O)[C@H](CCCNC(=N)N)NC(=O)C[C@H](C(C)C)NC(=O)[C@H](CCCNC(=N)N)NC(=O)[C@H](CC(C)C)NC1=O [GPS18169] ({Benzoyl(4-guanidino)}-[Aha][Nle]LR[β3hV]RP[Pra]W-OH; triazole 1-8)
[1]; 5 and 10 mg/kg i.p. once daily for 12 weeks
  adipose tissue weight / accumulation: active in limiting the accumulation of adipose tissues; also recorded: significant decrease
[1]; [4]
  weight of brown fat: significant (p < 0.05) decrease
  weight of inguinal fat: significant (p < 0.05) decrease
  weight of mesenteric fat: significant (p < 0.05) decrease
  weight of retroperitoneal fat: significant (p < 0.05) decrease
[1]; g/100 g of body weight
  weight ratio of adipose tissue to the whole body: constant
[2]
  antagonistic functionality (in words): high picomolar range
[2]; antagonism of MCH-induced cytosolic Ca2+ mobilization, read-out: Ki (functionality, antagonism at MCH-R1)
  Ki: 0.028 nM
[3]; human
  half-life: ≥ 5 h
[3]; mouse
  initial dose remaining after incubation in mice plasma: about 50%
  half-life: 2.92 ± 0.283 h
[3]; rat
  half-life: ≥ 5 h
